Consider 23 compounds from patent US9561228B2 (Celgene Avilomics Research, Inc., priority 2013, dated 2017).

pEC50: −log10 of the molar value.

Experiment [1] has as its system ERK1/2 phosphorylation of p90RSK in A375 cells. The experiment in a line: Detection of total and phosphor-RSK by MSD ELISA (A375). Type of experiment: cell-based. Conditions: Homo sapiens, A-375, read-out: ERK1/ERK2 PRSK A375 EC50. The method, boiled down:
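A375 cells serum-starved overnight in DMEM/0.1% FBS, then treated 2 h at 37° C with compound (1000× DMSO dilutions into medium). Lysates captured on RSK antibody-coated MSD plates; phospho-RSK (Ser380) and total RSK detected with SulfoTag secondary antibodies by electrochemiluminescence.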
(ELISA stands for enzyme-linked immunosorbent assay.)

Experiment [2] has as its system ERK1/2 phosphorylation of p90RSK in HT29 cells. The experiment in a line: pRSK MSD Assay in HT29 cells. The experiment is classed as cell-based. To be noted: Homo sapiens, HT-29, read-out: ERK1/ERK2 PRSK MSD HT29 EC50. An outline of the steps: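 Serum-starved HT29 cells (0.1% FBS overnight) treated with test compound for 120 min at 37° C, then lysed with protease and phosphatase inhibitors. Phospho-p90RSK quantified by MSD sandwich immunoassay: RSK capture antibody, phospho-RSK detection antibody plus Sulfo-tagged antibody, electrochemiluminescence read.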

As for `C=CC(=O)Nc1cc(CN2CCN(C(C)=O)CC2)ccc1Nc1nc(Nc2cc(OC)ncc2C)ncc1C(F)(F)F` [Compound I-381, N-(5-((4-acetylpiperazin-1-yl)methyl)-2-((2-((2-methoxy-5-methylpyridin-4-yl)amino)-5-(trifluoromethyl)pyrimidin-4-yl)amino)phenyl)acrylamide], the pEC50 in experiment [1] and in experiment [2] was more than 7.00 each time.
For `C=CC(=O)Nc1cc(CN2CCN(C(C)=O)CC2)ccc1Nc1nc(Nc2nc(OC)ncc2C)ncc1C(F)(F)F` [Compound I-382, N-(5-((4-acetylpiperazin-1-yl)methyl)-2-((2-((2-methoxy-5-methylpyrimidin-4-yl)amino)-5-(trifluoromethyl)pyrimidin-4-yl)amino)phenyl)acrylamide], the pEC50 in experiment [1] is less than 6.00; in experiment [2], 6.30 to 7.00.
The matching figures for `C=CC(=O)Nc1cc(CN2CCN(S(C)(=O)=O)CC2)ccc1Nc1nc(Nc2nc(OC)ncc2C)ncc1C(F)(F)F` [Compound I-383, N-(2-((2-((2-methoxy-5-methylpyrimidin-4-yl)amino)-5-(trifluoromethyl)pyrimidin-4-yl)amino)-5-((4-(methylsulfonyl)piperazin-1-yl)methyl)phenyl)acrylamide]: less than 6.00 and more than 7.00.
On the same counts, the results for `C=CC(=O)Nc1cc(CN2CCN(S(C)(=O)=O)CC2)ccc1Nc1nc(Nc2cc(OC)ncc2C)ncc1C(F)(F)F` [Compound I-384, N-(2-((2-((2-methoxy-5-methylpyridin-4-yl)amino)-5-(trifluoromethyl)pyrimidin-4-yl)amino)-5-((4-(methylsulfonyl)piperazin-1-yl)methyl)phenyl)acrylamide] are more than 7.00 and more than 7.00.
On the same counts, the results for `C=CC(=O)Nc1cc(CN2CCN(C(=O)CO)CC2)ccc1Nc1nc(Nc2cc(OC)ncc2C)ncc1C(F)(F)F` [Compound I-385, N-(5-((4-(2-hydroxyacetyl)piperazin-1-yl)methyl)-2-((2-((2-methoxy-5-methylpyridin-4-yl)amino)-5-(trifluoromethyl)pyrimidin-4-yl)amino)phenyl)acrylamide] are more than 7.00 and more than 7.00.
For the compound `C=CC(=O)Nc1cc(CN2CCN(C(=O)CO)CC2)ccc1Nc1nc(Nc2nc(OC)ncc2C)ncc1C(F)(F)F` [Compound I-386, N-(5-((4-(2-hydroxyacetyl)piperazin-1-yl)methyl)-2-((2-((2-methoxy-5-methylpyrimidin-4-yl)amino)-5-(trifluoromethyl)pyrimidin-4-yl)amino)phenyl)acrylamide], the pEC50 in experiment [1] is less than 6.00; in experiment [2] it was 6.00 to 6.30.
Turning to `C=CC(=O)Nc1cc(OCC(N)=O)ccc1Nc1nc(NC2CCOCC2)ncc1C(F)(F)F` [Compound I-387, N-(5-(2-amino-2-oxoethoxy)-2-((2-((tetrahydro-2H-pyran-4-yl)amino)-5-(trifluoromethyl)pyrimidin-4-yl)amino)phenyl)acrylamide], the pEC50 in experiment [1] and in experiment [2] was 6.30 to 7.00 each time.
Turning to `C=CC(=O)Nc1cc(CN2CCN(C(=O)c3ccccn3)CC2)ccc1Nc1nc(Nc2cc(OC)ncc2C)ncc1C(F)(F)F` [Compound I-388, N-(2-((2-((2-methoxy-5-methylpyridin-4-yl)amino)-5-(trifluoromethyl)pyrimidin-4-yl)amino)-5-((4-picolinoylpiperazin-1-yl)methyl)phenyl)acrylamide], the pEC50 in experiment [1] and in experiment [2] was more than 7.00 in each case.
Regarding `C=CC(=O)Nc1cc(CN2CCN(C(=O)c3cccnc3)CC2)ccc1Nc1nc(Nc2cc(OC)ncc2C)ncc1C(F)(F)F` [Compound I-389, N-(2-((2-((2-methoxy-5-methylpyridin-4-yl)amino)-5-(trifluoromethyl)pyrimidin-4-yl)amino)-5-((4-nicotinoylpiperazin-1-yl)methyl)phenyl)acrylamide], the pEC50 in experiment [1] and in experiment [2] was more than 7.00 in each case.
As to `C=CC(=O)Nc1cc(CN2CCN(C(=O)c3cnccn3)CC2)ccc1Nc1nc(Nc2cc(OC)ncc2C)ncc1C(F)(F)F` [Compound I-390, N-(2-((2-((2-methoxy-5-methylpyridin-4-yl)amino)-5-(trifluoromethyl)pyrimidin-4-yl)amino)-5-((4-(pyrazine-2-carbonyl)piperazin-1-yl)methyl)phenyl)acrylamide], the pEC50 in experiment [1] and in experiment [2] was more than 7.00 each time.
With `C=CC(=O)Nc1cc(CN2CCN(C(=O)c3ccccn3)CC2)ccc1Nc1nc(Nc2nc(OC)ncc2C)ncc1C(F)(F)F` [Compound I-391, N-(2-((2-((2-methoxy-5-methylpyrimidin-4-yl)amino)-5-(trifluoromethyl)pyrimidin-4-yl)amino)-5-((4-picolinoylpiperazin-1-yl)methyl)phenyl)acrylamide], the pEC50 was less than 6.00 in experiment [1] and 6.30 to 7.00 in experiment [2].
The matching figures for `C=CC(=O)Nc1cc(CN2CCN(C(=O)c3cccnc3)CC2)ccc1Nc1nc(Nc2nc(OC)ncc2C)ncc1C(F)(F)F` [Compound I-392, N-(2-((2-((2-methoxy-5-methylpyrimidin-4-yl)amino)-5-(trifluoromethyl)pyrimidin-4-yl)amino)-5-((4-nicotinoylpiperazin-1-yl)methyl)phenyl)acrylamide]: less than 6.00 and 6.00 to 6.30.
The matching figures for `C=CC(=O)Nc1cc(CN2CCN(C(=O)c3cnccn3)CC2)ccc1Nc1nc(Nc2nc(OC)ncc2C)ncc1C(F)(F)F` [Compound I-393, N-(2-((2-((2-methoxy-5-methylpyrimidin-4-yl)amino)-5-(trifluoromethyl)pyrimidin-4-yl)amino)-5-((4-(pyrazine-2-carbonyl)piperazin-1-yl)methyl)phenyl)acrylamide]: less than 6.00 and 6.00 to 6.30.
Regarding `C=CC(=O)Nc1cc(CN2CCN(C)CC2)ccc1Nc1nc(Nc2nc(OC)ncc2C)ncc1C(F)(F)F` [Compound I-394, N-(2-((2-((2-methoxy-5-methylpyrimidin-4-yl)amino)-5-(trifluoromethyl)pyrimidin-4-yl)amino)-5-((4-methylpiperazin-1-yl)methyl)phenyl)acrylamide], the pEC50 is less than 6.00 in experiment [1] and 6.00 to 6.30 in experiment [2].
As to `C=CC(=O)Nc1ccc(OCC(N)=O)cc1Nc1nc(NC2CCOCC2)ncc1C(F)(F)F` [Compound I-395, N-(4-(2-amino-2-oxoethoxy)-2-((2-((tetrahydro-2H-pyran-4-yl)amino)-5-(trifluoromethyl)pyrimidin-4-yl)amino)phenyl)acrylamide], the pEC50 in experiment [1] and in experiment [2] was less than 6.00 throughout.
With `C=CC(=O)Nc1cc(OCCN)ccc1Nc1nc(Nc2cc(OC)ncc2C)ncc1C(F)(F)F` [Compound I-396, N-(5-(2-aminoethoxy)-2-((2-((2-methoxy-5-methylpyridin-4-yl)amino)-5-(trifluoromethyl)pyrimidin-4-yl)amino)phenyl)acrylamide], the pEC50 in experiment [1] and in experiment [2] was 6.30 to 7.00 each time.
`C=CC(=O)Nc1cc(C)c(C#N)cc1Nc1nc(NC2CCOCC2)ncc1C(F)(F)F` [Compound I-397, N-(4-cyano-5-methyl-2-((2-((tetrahydro-2H-pyran-4-yl)amino)-5-(trifluoromethyl)pyrimidin-4-yl)amino)phenyl)acrylamide]: the pEC50 in experiment [1] and in experiment [2] was 6.00 to 6.30 each time.
Regarding `C=CC(=O)Nc1cc(OCC(N)=O)ccc1Nc1nc(Nc2cc(OC)ncc2C)ncc1C(F)(F)F` [Compound I-398, N-(5-(2-amino-2-oxoethoxy)-2-((2-((2-methoxy-5-methylpyridin-4-yl)amino)-5-(trifluoromethyl)pyrimidin-4-yl)amino)phenyl)acrylamide], the pEC50 in experiment [1] and in experiment [2] was more than 7.00 each time.
For `C=CC(=O)Nc1cc(CN2CCOCC2)ccc1Nc1nc(Nc2cc(OC)ncc2C)ncc1C(F)(F)F` [Compound I-399, N-(2-((2-((2-methoxy-5-methylpyridin-4-yl)amino)-5-(trifluoromethyl)pyrimidin-4-yl)amino)-5-(morpholinomethyl)phenyl)acrylamide], the pEC50 in experiment [1] and in experiment [2] was 6.00 to 6.30 each time.
For the compound `C=CC(=O)Nc1cc(CCC(N)=O)ccc1Nc1nc(Nc2cc(OC)ncc2C)ncc1C(F)(F)F` [Compound I-400, N-(5-(3-amino-3-oxopropyl)-2-((2-((2-methoxy-5-methylpyridin-4-yl)amino)-5-(trifluoromethyl)pyrimidin-4-yl)amino)phenyl)acrylamide], the pEC50 in experiment [1] and in experiment [2] was more than 7.00 in each case.
As to `C=CC(=O)Nc1cc(C(=O)N2CCN(S(C)(=O)=O)CC2)ccc1Nc1nc(Nc2cc(OC)ncc2C)ncc1C(F)(F)F` [Compound I-401, N-(2-((2-((2-methoxy-5-methylpyridin-4-yl)amino)-5-(trifluoromethyl)pyrimidin-4-yl)amino)-5-(4-(methylsulfonyl)piperazine-1-carbonyl)phenyl)acrylamide], the pEC50 in experiment [1] and in experiment [2] was 6.30 to 7.00 each time.
Take `C=CC(=O)Nc1cc(OC(F)(F)F)ccc1Nc1nc(Nc2cc(OC)ncc2C)ncc1C(F)(F)F` [Compound I-407, N-(2-((2-((2-methoxy-5-methylpyridin-4-yl)amino)-5-(trifluoromethyl)pyrimidin-4-yl)amino)-5-(trifluoromethoxy)phenyl)acrylamide]: the pEC50 was 6.30 to 7.00 in experiment [1] and more than 7.00 in experiment [2].
On the same counts, the results for `C=CC(=O)Nc1cc(C)ccc1Nc1nc(Nc2cc(OC)ncc2CC)ncc1C(F)(F)F` [Compound I-408, N-(2-((2-((5-ethyl-2-methoxypyridin-4-yl)amino)-5-(trifluoromethyl)pyrimidin-4-yl)amino)-5-methylphenyl)acrylamide] are 6.30 to 7.00 and 6.30 to 7.00.
